Test results as given in ChEMBL document CHEMBL1155172, “Distribution of radioactivity in bone and related structures following administration of [14C]dalbavancin to New Zealand white rabbits” (Antimicrob Agents Chemother, 2007).

What was measured:
[1] = Drug level in New Zealand white rabbit synovial space assessed as [14C]dalbavancin level per gram of tissue at 20 mg/kg, iv after 336 hrs by autoradioluminography; assay type: ADME, organism-based, Oryctolagus cuniculus; set-up: dose 20 mg/kg, route intravenous; details: in vivo
[2] = system: Blood; test: Drug level in New Zealand white rabbit blood assessed as [14C]dalbavancin level per gram of tissue at 20 mg/kg, iv after 24 hrs by autoradioluminography; assay type: ADME, organism-based, Oryctolagus cuniculus; set-up: dose 20 mg/kg, route intravenous; details: in vivo
[3] = Drug level in New Zealand white rabbit epiphyseal plate assessed as [14C]dalbavancin level per gram of tissue at 20 mg/kg, iv after 120 hrs by autoradioluminography; assay type: ADME, organism-based, Oryctolagus cuniculus; set-up: dose 20 mg/kg, route intravenous; details: in vivo
[4] = Drug level in New Zealand white rabbit articular cartilage assessed as [14C]dalbavancin level per gram of tissue at 20 mg/kg, iv after 24 hrs by autoradioluminography; assay type: ADME, organism-based, Oryctolagus cuniculus; set-up: dose 20 mg/kg, route intravenous; details: in vivo
[5] = Drug level in New Zealand white rabbit bone marrow assessed as [14C]dalbavancin level per gram of tissue at 20 mg/kg, iv after 24 hrs by liquid scintillation counting method; assay type: ADME, organism-based, Oryctolagus cuniculus; set-up: dose 20 mg/kg, route intravenous; details: in vivo
[6] = Drug level in New Zealand white rabbit periostium assessed as [14C]dalbavancin level per gram of tissue at 20 mg/kg, iv after 12 hrs by autoradioluminography; assay type: ADME, organism-based, Oryctolagus cuniculus, Periosteum; set-up: dose 20 mg/kg, route intravenous; details: in vivo
[7] = Drug level in New Zealand white rabbit bone assessed as [14C]dalbavancin level per gram of tissue at 20 mg/kg, iv after 168 hrs by liquid scintillation counting method; assay type: ADME, organism-based, Oryctolagus cuniculus, Bone element; set-up: dose 20 mg/kg, route intravenous; details: in vivo
[8] = system: Oryctolagus cuniculus; test: Plasma concentration in New Zealand white rabbit assessed as [14C]dalbavancin level per gram of tissue at 20 mg/kg, iv after 336 hrs by liquid scintillation counting method; assay type: ADME, organism-based; set-up: dose 20 mg/kg, route intravenous; details: in vivo
[9] = Drug level in New Zealand white rabbit meniscus assessed as [14C]dalbavancin level per gram of tissue at 20 mg/kg, iv after 24 hrs by autoradioluminography; assay type: ADME, organism-based, Oryctolagus cuniculus; set-up: dose 20 mg/kg, route intravenous; details: in vivo
[10] = Drug level in New Zealand white rabbit epiphyseal plate assessed as [14C]dalbavancin level per gram of tissue at 20 mg/kg, iv after 24 hrs by autoradioluminography; assay type: ADME, organism-based, Oryctolagus cuniculus; set-up: dose 20 mg/kg, route intravenous; details: in vivo
[11] = Drug level in New Zealand white rabbit periostium assessed as [14C]dalbavancin level per gram of tissue at 20 mg/kg, iv after 168 hrs by autoradioluminography; assay type: ADME, organism-based, Oryctolagus cuniculus, Periosteum; set-up: dose 20 mg/kg, route intravenous; details: in vivo
[12] = Drug level in New Zealand white rabbit cerebrospinal fluid assessed as [14C]dalbavancin level per gram of tissue at 20 mg/kg, iv after 24 hrs by liquid scintillation counting method; assay type: ADME, organism-based, Oryctolagus cuniculus; set-up: dose 20 mg/kg, route intravenous; details: in vivo
[13] = system: Blood; test: Drug level in New Zealand white rabbit blood assessed as [14C]dalbavancin level per gram of tissue at 20 mg/kg, iv after 120 hrs by autoradioluminography; assay type: ADME, organism-based, Oryctolagus cuniculus; set-up: dose 20 mg/kg, route intravenous; details: in vivo
[14] = Drug level in New Zealand white rabbit synovial space assessed as [14C]dalbavancin level per gram of tissue at 20 mg/kg, iv after 12 hrs by autoradioluminography; assay type: ADME, organism-based, Oryctolagus cuniculus; set-up: dose 20 mg/kg, route intravenous; details: in vivo
[15] = system: Blood; test: Drug level in New Zealand white rabbit blood assessed as [14C]dalbavancin level per gram of tissue at 20 mg/kg, iv after 72 hrs by autoradioluminography; assay type: ADME, organism-based, Oryctolagus cuniculus; set-up: dose 20 mg/kg, route intravenous; details: in vivo
[16] = Drug level in New Zealand white rabbit synovial space assessed as [14C]dalbavancin level per gram of tissue at 20 mg/kg, iv after 72 hrs by autoradioluminography; assay type: ADME, organism-based, Oryctolagus cuniculus; set-up: dose 20 mg/kg, route intravenous; details: in vivo
[17] = system: Staphylococcus; test: Antibacterial activity against Staphylococcus; assay type: functional
[18] = Drug level in New Zealand white rabbit ligament assessed as [14C]dalbavancin level per gram of tissue at 20 mg/kg, iv after 24 hrs by autoradioluminography; assay type: ADME, organism-based, Oryctolagus cuniculus; set-up: dose 20 mg/kg, route intravenous; details: in vivo
[19] = Drug level in New Zealand white rabbit ligament assessed as [14C]dalbavancin level per gram of tissue at 20 mg/kg, iv after 120 hrs by autoradioluminography; assay type: ADME, organism-based, Oryctolagus cuniculus; set-up: dose 20 mg/kg, route intravenous; details: in vivo
[20] = Drug level in New Zealand white rabbit articular cartilage assessed as [14C]dalbavancin level per gram of tissue at 20 mg/kg, iv after 72 hrs by autoradioluminography; assay type: ADME, organism-based, Oryctolagus cuniculus; set-up: dose 20 mg/kg, route intravenous; details: in vivo
[21] = Drug level in New Zealand white rabbit articular cartilage assessed as [14C]dalbavancin level per gram of tissue at 20 mg/kg, iv after 336 hrs by autoradioluminography; assay type: ADME, organism-based, Oryctolagus cuniculus; set-up: dose 20 mg/kg, route intravenous; details: in vivo
[22] = Drug level in New Zealand white rabbit cerebrospinal fluid assessed as [14C]dalbavancin level per gram of tissue at 20 mg/kg, iv after 12 hrs by liquid scintillation counting method; assay type: ADME, organism-based, Oryctolagus cuniculus; set-up: dose 20 mg/kg, route intravenous; details: in vivo
[23] = Drug level in New Zealand white rabbit meniscus assessed as [14C]dalbavancin level per gram of tissue at 20 mg/kg, iv after 12 hrs by autoradioluminography; assay type: ADME, organism-based, Oryctolagus cuniculus; set-up: dose 20 mg/kg, route intravenous; details: in vivo
[24] = Drug level in New Zealand white rabbit compact bone assessed as [14C]dalbavancin level per gram of tissue at 20 mg/kg, iv after 72 hrs by autoradioluminography; assay type: ADME, organism-based, Oryctolagus cuniculus, Bone element; set-up: dose 20 mg/kg, route intravenous; details: in vivo
[25] = system: Blood; test: Drug level in New Zealand white rabbit blood assessed as [14C]dalbavancin level per gram of tissue at 20 mg/kg, iv after 12 hrs by autoradioluminography; assay type: ADME, organism-based, Oryctolagus cuniculus; set-up: dose 20 mg/kg, route intravenous; details: in vivo
[26] = Drug level in New Zealand white rabbit bone assessed as [14C]dalbavancin level per gram of tissue at 20 mg/kg, iv after 336 hrs by liquid scintillation counting method; assay type: ADME, organism-based, Oryctolagus cuniculus, Bone element; set-up: dose 20 mg/kg, route intravenous; details: in vivo
[27] = Drug level in New Zealand white rabbit skeletal muscle assessed as [14C]dalbavancin level per gram of tissue at 20 mg/kg, iv after 24 hrs by autoradioluminography; assay type: ADME, organism-based, Oryctolagus cuniculus; set-up: dose 20 mg/kg, route intravenous; details: in vivo
[28] = system: Oryctolagus cuniculus; test: Plasma concentration in New Zealand white rabbit assessed as [14C]dalbavancin level per gram of tissue at 20 mg/kg, iv after 120 hrs by liquid scintillation counting method; assay type: ADME, organism-based; set-up: dose 20 mg/kg, route intravenous; details: in vivo
[29] = Drug level in New Zealand white rabbit compact bone assessed as [14C]dalbavancin level per gram of tissue at 20 mg/kg, iv after 336 hrs by autoradioluminography; assay type: ADME, organism-based, Oryctolagus cuniculus, Bone element; set-up: dose 20 mg/kg, route intravenous; details: in vivo
[30] = Drug level in New Zealand white rabbit synovial space assessed as [14C]dalbavancin level per gram of tissue at 20 mg/kg, iv after 168 hrs by autoradioluminography; assay type: ADME, organism-based, Oryctolagus cuniculus; set-up: dose 20 mg/kg, route intravenous; details: in vivo
[31] = Drug level in New Zealand white rabbit bone assessed as [14C]dalbavancin level per gram of tissue at 20 mg/kg, iv after 120 hrs by liquid scintillation counting method; assay type: ADME, organism-based, Oryctolagus cuniculus, Bone element; set-up: dose 20 mg/kg, route intravenous; details: in vivo
[32] = Drug level in New Zealand white rabbit bone marrow assessed as [14C]dalbavancin level per gram of tissue at 20 mg/kg, iv after 336 hrs by liquid scintillation counting method; assay type: ADME, organism-based, Oryctolagus cuniculus; set-up: dose 20 mg/kg, route intravenous; details: in vivo
[33] = Drug level in New Zealand white rabbit bone marrow assessed as [14C]dalbavancin level per gram of tissue at 20 mg/kg, iv after 72 hrs by liquid scintillation counting method; assay type: ADME, organism-based, Oryctolagus cuniculus; set-up: dose 20 mg/kg, route intravenous; details: in vivo
[34] = Drug level in New Zealand white rabbit nucleus pulposus assessed as [14C]dalbavancin level per gram of tissue at 20 mg/kg, iv after 72 hrs by liquid scintillation counting method; assay type: ADME, organism-based, Oryctolagus cuniculus; set-up: dose 20 mg/kg, route intravenous; details: in vivo
[35] = system: Oryctolagus cuniculus; test: Plasma concentration in New Zealand white rabbit assessed as [14C]dalbavancin level per gram of tissue at 20 mg/kg, iv after 72 hrs by liquid scintillation counting method; assay type: ADME, organism-based; set-up: dose 20 mg/kg, route intravenous; details: in vivo
[36] = Drug level in New Zealand white rabbit bone marrow assessed as [14C]dalbavancin level per gram of tissue at 20 mg/kg, iv after 120 hrs by autoradioluminography; assay type: ADME, organism-based, Oryctolagus cuniculus; set-up: dose 20 mg/kg, route intravenous; details: in vivo
[37] = system: Oryctolagus cuniculus; test: Plasma concentration in New Zealand white rabbit assessed as [14C]dalbavancin level per gram of tissue at 20 mg/kg, iv after 168 hrs by liquid scintillation counting method; assay type: ADME, organism-based; set-up: dose 20 mg/kg, route intravenous; details: in vivo
[38] = Drug level in New Zealand white rabbit meniscus assessed as [14C]dalbavancin level per gram of tissue at 20 mg/kg, iv after 120 hrs by autoradioluminography; assay type: ADME, organism-based, Oryctolagus cuniculus; set-up: dose 20 mg/kg, route intravenous; details: in vivo

CN[C@H]1C(=O)N[C@@H]2Cc3ccc(cc3)Oc3cc4cc(c3O[C@@H]3O[C@H](C(=O)O)[C@@H](O)[C@H](O)[C@H]3NC(=O)CCCCCCCCC(C)C)Oc3ccc(cc3Cl)[C@@H](O)[C@@H]3NC(=O)[C@H](NC(=O)[C@@H]4NC(=O)[C@@H](NC2=O)c2cc(cc(O)c2Cl)Oc2cc1ccc2O)c1ccc(O)c(c1)-c1c(O[C@H]2O[C@H](CO)[C@@H](O)[C@H](O)[C@@H]2O)cc(O)cc1[C@@H](C(=O)NCCCN(C)C)NC3=O [DALBAVANCIN]
Drug uptake [1]: 1.16 µg/g | Drug uptake [2]: 14.49 µg | Drug uptake [3]: 10.3 µg/g | Drug uptake [4]: 21.4 µg/g | Drug uptake [5]: 14.8 µg/g | Drug uptake [6]: 20.9 µg/g | Drug uptake [7]: 3.39 µg/g | Cp [8]: 0.94 µg | Drug uptake [9]: 12.4 µg/g | Drug uptake [10]: 18.7 µg/g | Drug uptake [11]: 7.28 µg | Drug uptake [12]: 0.05 µg/g | Drug uptake [13]: 1.5 µg/g | Drug uptake [14]: 6.56 µg/g | Drug uptake [15]: 5.02 µg/g | Drug uptake [16]: 1.49 µg/g | MIC90 [17]: ≤ 0.06 µg/mL | Drug uptake [18]: 8.64 µg/g | Drug uptake [19]: 3.68 µg/g | Drug uptake [20]: 8.04 µg/g | Drug uptake [21]: 4.84 µg | Drug uptake [22]: 0.08 µg/g | Drug uptake [23]: 19.19 µg | Drug uptake [24]: 0.39 µg | Drug uptake [25]: 30.6 µg/g | Drug uptake [26]: 1.96 µg/g | Drug uptake [27]: 1.92 µg | Cp [28]: 2.78 µg | Drug uptake [29]: 0.24 µg/g | Drug uptake [30]: 2.66 µg/g | Drug uptake [31]: 3.46 µg/g | Drug uptake [32]: 12 µg/g | Drug uptake [33]: 12.7 µg/g | Drug uptake [34]: 0.67 µg | Cp [35]: 4.5 µg | Drug uptake [36]: 29.9 µg/g | Cp [37]: 2.01 µg | Drug uptake [38]: 4.39 µg/g
